According to publication PMC4592236, “Pathogen- and Host-Directed Antileishmanial Effects Mediated by Polyhexanide (PHMB)” (PLoS Neglected Tropical Diseases, 2015):
Structures can show the parent of a compound that is named as a salt. Where two headings read alike, the source gives them in different places.

Key:
[1] = test system: L. major promastigotes; experiment: AlamarBlue assay against L. major promastigotes; type: cell-based, Leishmania major; conditions: for IC50 (μM) promastigotes: Table 2, without dynasore
Procedure: Cytotoxicities of the different compounds or formulations against mammalian cell (BMDM or 293T epithelial cells) and L. major promastigotes were determined as previously described. Briefly, 4 × 10^4 mammalian cells or 10 × 10^6 virulent L. major promastigotes (MHOM/IL/81/FE/BNI strain) in the log phase of growth were added to each well of 96-well plates and cultured with five increasing concentrations of each compound at 37°C or 27°C for 24 h, respectively. Standard antileishmanial drugs including amphotericin B (A2942), pentamidine isothionate (P0547) and paromomycin sulfate (P9297) from Sigma-Aldrich (Deisenhofen, Germany) and miltefosine (1-hexadecylphosphorylcholine) (Cayman Chemical Company, Ann Arbor, MI, USA) were used as positive controls. The AlamarBlue dye (Trinova Biochem GmbH, Giessen, Germany) was added to each well at 10% concentration and incubated for a further 48 h. The optical density (OD) was then measured by using Multiskan Ascent ELISA reader at a wavelength 550 nm and 630 nm. The OD value or % dye reduction is proportional to viable cell/parasite number and was used for IC50 calculation based on the intercept theorem.

[2] = test system: intracellular L. major amastigotes; experiment: microbe, parasite or virus in culture; type: cell-based, Leishmania major; conditions: for IC50: intracellular amastigotes in BMDM, luciferase; for IC50 (μM) amastigotes: Table 2, without dynasore, two independent experiments
Procedure: The assay is based on bioluminescence measurement of firefly luciferase, which catalyzes the formation of light from ATP and luciferin. The virulent luciferase-transgenic (Luc-tg) L. major strain containing a firefly luciferase reporter gene was maintained by continuous passage in female BALB/c mice and was grown in 96-well blood agar cultures at 27°C, 5% CO2, and 95% humidity. A luciferase-transgenic L. major strain was used to infect BMDM according to our recently established protocol. Briefly, BMDM numbers were adjusted to 2 × 10^5, cultured in 96-well plates and incubated for 4 h to allow adherence to the surface. The promastigote number was adjusted to 3 × 10^6 parasites per ml to achieve an infection rate of 1:15. Then, infection was made by discarding the supernatant of the cultured cells and replacing it with an equal volume of complete RPMI medium containing the promastigotes' suspension. After incubating the infected BMDM (37°C, 5% CO2) for 24 h to allow full differentiation of the promastigotes into amastigotes, the medium containing the extracellular parasites was removed and the wells were washed three times with the same RPMI medium. Five serial dilutions of each substance (1:5) in the same fresh RPMI medium were added to the infected BMDM in duplicate with the appropriate controls. After further 24 h of incubation at 37°C and 5% CO2, the infected BMDM were lysed with a luciferin-containing buffer (Britelite, PerkinElmer, Germany) and luminescence was measured with a luminescence plate reader, Victor X Light 2030 luminometer (PerkinElmer). The IC50 values of the compounds against intracellular amastigotes were calculated based on the intercept theorem, as previously described.

[3] = test system: BMDM; experiment: AlamarBlue cytotoxicity assay, BMDM; type: cell-based, BALB/c mice; conditions: average of 3–6 independent experiments, read-out: IC50 BMDMs
[4] = test system: BMDM; experiment: Cytokine production by BMDM (ELISA); type: cell-based, BALB/c mice; conditions: BMDM supernatants, 48 h
Procedure: BMDM were generated from female BALB/c mice as described above in cell culture. 1 × 10^6 BMDM were seeded in a final volume of 0.5 ml in 24-well plates, infected with L. major promastigotes at 15:1 parasite to BMDM ratio, washed and incubated at 37°C for 30 min in complete RPMI medium containing CpG ODN (15 μg/ml). PHMB, CpG ODN or PHMB/CpG ODN polyplexes were added to the pre-activated or control cells and further incubated for 48 h. The supernatants were collected and IL-6, IL-10, IL-4 or TNF-α (Biosciences, Wiesbaden, Germany) concentrations were measured by sandwich ELISA while IL-12p70 was measured by using the IL-12p70 ELISA Ready-SET-Go kit from eBioscience according to the suppliers' instructions.

[5] = test system: BMDM; experiment: Cellular uptake by BMDM (flow cytometry); type: cell-based, BALB/c mice; conditions: pre-incubation with inhibitor 30 min, then 4 h
Procedure: PI and YO-PRO-1 dyes (Life Technologies, Darmstadt, Germany) uptake by the promastigotes was measured by MACS Quant Analyzer (Miltenyi Biotec, Bergisch Gladbach, Germany), and used to indicate membrane integrity. […] L. major promastigotes were treated with 2 μM PHMB for indicated time points and then washed at 3,000 × g for 10 min. The samples were stained by incubating with PI or YO-PRO-1 dyes for 15 min in the dark at RT according to manufacturer’s instructions. The samples were then washed and a total of 100,000 events were immediately acquired by flow cytometry. Similarly, adherent BMDM cells were allowed to take-up fluorescent PHMB (PHMB-FITC conjugate) in the presence or absence of five different pharmacological inhibitors (cytochalasin D (C8273, used at 5 μg/ml), wortmannin (W1628, used at 12.85 μg/ml), chlorpromazine hydrochloride (C8138, used at 10 μg/ml), ikarugamycin (SML0188, used at 1 μM) and dynasore (D7693, used at 25.8 μg/ml), Sigma-Aldrich, Deisenhofen, Germany). PHMB (Polyhexamethylene biguanide; CAS# 27083-27-8; alternative chemical names: polyhexanide, polyamino propylbiguanide, Mw = 2780 g/mol) was provided by the laboratory of Dr. Liam Good and by Tecrea Ltd, London UK (www.tecrea.co.uk), at stock concentrations of 1 mg/ml and 200 mg/ml. […] The data were analyzed using FlowJo software (Tree Star Inc., CA, USA).

[6] = test system: L. major promastigotes; experiment: PHMB-FITC uptake into promastigotes (flow cytometry); type: cell-based, Leishmania major; conditions: PHMB-FITC 0.35 μM
[7] = Leishmania major, AlamarBlue, average of 3–6 independent experiments
[8] = AlamarBlue, average of 3–6 independent experiments
[9] = concentration of PHMB within polyplexes
[10] = concentration of PHMB within polyplexes, listed as Dynasore (80 μM)
[11] = with dynasore (80 μM), concentration of PHMB within polyplexes

NC[C@@H]1O[C@H](O[C@H]2[C@@H](O)[C@H](O[C@@H]3[C@@H](O)[C@H](N)C[C@H](N)[C@H]3O[C@H]3O[C@H](CO)[C@@H](O)[C@H](O)[C@H]3N)O[C@@H]2CO)[C@H](N)[C@@H](O)[C@@H]1O [Paromomycin, paromomycin sulfate]
IC50 [1, 7]: > 500 µM
IC50 ([2]; Leishmania major): 1500 ± 112 µM
IC50 ([3]; Mus musculus, BMDM): > 900 µM

CpG ODN: unmethylated cytosine-phosphate-guanine oligodeoxynucleotide 1668, sequence TCCATGACGTTCCTGATGCT (DNA, backbone not given here)
IC50 [1, 8]: > 150 µM
IC50 promastigotes [1, 8]: did not show activity
IC50 [2]: > 150 µM
IC50 [3]: > 150 µM
cytokine production (IL-6, IL-10, IL-12) [4]: production of all cytokines tested increased with increasing doses

N=C(N)c1ccc(OCCCCCOc2ccc(C(=N)N)cc2)cc1 [Pentamidine, pentamidine isothionate]
IC50 [1, 7]: 16.2 ± 3.1 µM
IC50 ([2]; Leishmania major): 6.38 ± 2.4 µM
IC50 ([3]; Mus musculus, BMDM): 128 ± 24 µM

O=C(N/N=C/c1ccc(O)c(O)c1)c1cc2ccccc2cc1O [Dynasore, dynasore]
IC50 (μM) promastigotes [1, 9]: did not display cytotoxicity
IC50 (μM) promastigotes [1, 10]: No activity
IC50 promastigotes + dynasore (μM) [1, 11]: No activity
IC50 (μM) amastigotes [2, 9]: did not display cytotoxicity
IC50 (μM) amastigotes [2, 10]: No activity
IC50 amastigotes + dynasore (μM) [2, 11]: No activity
inhibition of PHMB-FITC uptake by BMDM [5]: 80%
inhibition of PHMB-FITC uptake into promastigotes [6]: more than 98%

CCCCCCCCCCCCCCCCOP(=O)([O-])OCC[N+](C)(C)C [Miltefosine, 1-hexadecylphosphorylcholine]
IC50 [1, 7]: 28.3 ± 5.2 µM
IC50 ([2]; Leishmania major): 54 ± 8.1 µM
IC50 ([3]; Mus musculus, BMDM): 75.6 ± 10.9 µM

C[C@@H]1[C@H](O)[C@@H](C)/C=C/C=C/C=C/C=C/C=C/C=C/C=C/[C@H](O[C@@H]2O[C@H](C)[C@@H](O)[C@H](N)[C@@H]2O)C[C@@H]2O[C@](O)(C[C@@H](O)C[C@@H](O)[C@H](O)CC[C@@H](O)C[C@@H](O)CC(=O)O[C@H]1C)C[C@H](O)[C@H]2C(=O)O [Amphotericin B, amphotericin B]
IC50 [1, 7]: 0.42 ± 0.5 µM
IC50 ([2]; Leishmania major): 0.099 ± 0.05 µM
IC50 ([3]; Mus musculus, BMDM): > 21 µM
